Results reported in publication PMC9821843, “Powerful Potential of Polyfluoroalkyl-Containing 4-Arylhydrazinylidenepyrazol-3-ones for Pharmaceuticals” (Molecules, 2022).

Target: T1, ratTRPA1 (rTRPA1) (Rattus norvegicus, UniProt Q6RI86)
T1 construct: expressed in transfected cells
Assay: TRPA1 calcium imaging in CHO cells (AITC activation)
Type: cell-based
Settings: CHO cells expressing TRPA1, Fluo-4, AITC 160 μM
Method: TRPA1 is known to be responsible for inflammatory and neuropathic pain appearance; therefore, it can be considered as a potential biological target for the analgesic action of the studied pyrazolones. Therefore, we studied the effect of pyrazolone 6b, showing the maximum analgesic effect in the hot plate test at 1 h on the activation of the TRPA1 ion channel by allyl isothiocyanate (AITC). The cell line CHO (Chinese hamster ovary cell) stably expressing the TRPA1 channel was used for measurement. Activation by a specific agonist was measured by fluorescence spectroscopy using Fluo-4 dye by changing the level of intracellular calcium.
Testing for receptors ratTRPA1 (rTRPA1) and ratTRPV1 (rTRPV1), stably expressed in CHO cells, was carried out using the calcium imaging method as described in [123, 124]. Fluorescence was performed using NOVOstar (BMG LABTECH, Ortenberg, Germany). The tested substances in 26% DMSO solution or 26% DMSO solution alone (negative control) (5 μL) were added to the cells loaded with the cytoplasmic calcium indicator Fluo-4AM using Fluo-4 Direct™ Calcium Assay Kit (Thermo Fisher Scientific Inc., Waltham, MA, USA) (60 μL) and incubated 5–10 min. Final DMSO concentration was 2%. Changes in cell fluorescence (λex = 485 nm, λem = 520 nm) were monitored at 25 °C before and after the addition of relevant agonist. […]

T1 sequence (Q6RI86 whole entry): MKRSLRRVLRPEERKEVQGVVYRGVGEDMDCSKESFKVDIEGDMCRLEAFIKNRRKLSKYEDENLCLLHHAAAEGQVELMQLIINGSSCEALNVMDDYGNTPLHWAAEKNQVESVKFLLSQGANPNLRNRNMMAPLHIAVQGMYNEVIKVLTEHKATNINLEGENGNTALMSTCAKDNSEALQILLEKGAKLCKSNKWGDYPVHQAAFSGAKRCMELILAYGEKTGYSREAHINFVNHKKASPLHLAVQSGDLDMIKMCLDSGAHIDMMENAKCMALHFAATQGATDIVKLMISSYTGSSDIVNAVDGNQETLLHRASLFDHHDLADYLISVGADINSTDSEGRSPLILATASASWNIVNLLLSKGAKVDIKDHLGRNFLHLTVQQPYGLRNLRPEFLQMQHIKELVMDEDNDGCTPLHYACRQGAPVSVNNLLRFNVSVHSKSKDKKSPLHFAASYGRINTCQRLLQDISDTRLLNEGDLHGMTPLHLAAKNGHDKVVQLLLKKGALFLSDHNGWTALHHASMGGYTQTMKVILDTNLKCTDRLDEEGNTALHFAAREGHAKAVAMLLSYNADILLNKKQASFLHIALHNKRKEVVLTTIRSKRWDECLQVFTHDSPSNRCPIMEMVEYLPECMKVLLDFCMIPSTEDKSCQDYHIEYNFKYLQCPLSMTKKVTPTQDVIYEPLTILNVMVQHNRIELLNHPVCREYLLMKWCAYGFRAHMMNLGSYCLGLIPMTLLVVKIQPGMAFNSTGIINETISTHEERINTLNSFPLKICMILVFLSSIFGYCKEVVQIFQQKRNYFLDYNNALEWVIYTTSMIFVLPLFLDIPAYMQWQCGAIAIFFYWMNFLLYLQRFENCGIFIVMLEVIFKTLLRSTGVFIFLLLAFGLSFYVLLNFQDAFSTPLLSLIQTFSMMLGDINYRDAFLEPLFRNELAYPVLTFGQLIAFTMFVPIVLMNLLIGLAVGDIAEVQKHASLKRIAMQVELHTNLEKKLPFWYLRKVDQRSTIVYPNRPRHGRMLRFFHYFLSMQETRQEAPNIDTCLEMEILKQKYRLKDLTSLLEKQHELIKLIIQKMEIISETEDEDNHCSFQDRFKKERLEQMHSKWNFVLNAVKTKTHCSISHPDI

Cc1ccc(N/N=C2\C(=O)N(c3ccccc3)N=C2C(F)(F)C(F)(F)F)cc1 [6b, (4Z)-4-[2-(4-Methylphenyl)hydrazinylidene]-5-(pentafluoroethyl)-2-phenyl-2,4-dihydro-3H-pyrazol-3-one]
effect on AITC-induced TRPA1 channel activation: no significant effect
